The term IC50 denotes the concentration that gives 50% inhibition.

Molecules are shown by their SMILES. “And” between values parts separate entries of the source, which are not always exact repeats. Identical values can stand only once.

Data set [1] has as its target T1, human FAP (Homo sapiens, UniProt Q12884).
T1 construct: the human secretion signal was replaced with the HoneyBee mellitin secretion signal; HoneyBee mellitin secretion signal (replaces the native signal-anchor) (N); C-terminal tag of the BaculoDirect C-term kit (C); made in house; host or cells: Sf9 insect cells (baculovirus); purified from the supernatant
T1 sequence (Q12884 26-760 limits assumed): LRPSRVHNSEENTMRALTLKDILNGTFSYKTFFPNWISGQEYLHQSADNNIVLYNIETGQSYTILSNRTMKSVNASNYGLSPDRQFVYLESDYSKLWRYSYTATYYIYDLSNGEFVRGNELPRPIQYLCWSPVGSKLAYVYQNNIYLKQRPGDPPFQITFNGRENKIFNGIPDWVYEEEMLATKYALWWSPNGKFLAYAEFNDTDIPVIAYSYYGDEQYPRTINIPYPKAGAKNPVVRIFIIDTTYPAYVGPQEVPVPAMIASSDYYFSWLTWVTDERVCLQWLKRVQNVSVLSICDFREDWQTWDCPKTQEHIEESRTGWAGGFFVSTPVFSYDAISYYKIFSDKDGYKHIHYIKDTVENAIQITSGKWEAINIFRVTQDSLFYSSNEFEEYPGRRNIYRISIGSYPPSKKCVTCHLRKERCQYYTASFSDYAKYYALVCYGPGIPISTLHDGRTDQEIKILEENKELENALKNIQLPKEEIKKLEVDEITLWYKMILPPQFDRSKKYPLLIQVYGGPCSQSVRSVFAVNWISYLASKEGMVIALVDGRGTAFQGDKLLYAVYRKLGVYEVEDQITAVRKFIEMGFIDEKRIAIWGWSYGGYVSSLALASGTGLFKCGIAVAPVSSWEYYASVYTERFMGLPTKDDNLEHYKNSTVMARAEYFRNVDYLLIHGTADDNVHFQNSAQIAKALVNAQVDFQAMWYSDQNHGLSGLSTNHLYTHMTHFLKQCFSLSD
Kind of data set: FAP inhibition assay (IC50, Z-Gly-Pro-AMC substrate). Conditions: for IC50: Z-Gly-Pro-AMC 50 μM, pH 8, 15 min pre-incubation at 37 °C. The format is biochemical. An excerpt:
(§1) Enzymes: A gateway-entry clone for human FAP was purchased from Dharmacon (Accession number DQ891423) and the human secretion signal was replaced with the HoneyBee mellitin secretion signal. For transfection and expression of FAP in Sf9 insect cells, the C-terminal BaculoDirect kit from LifeTechnologies was used. The enzyme was purified from the supernatant of the insect cells using immobilized Ni-chelating chromatography (GE healthcare, Diegem, Belgium), followed by anion-exchange chromatography using a 1 mL HiTrap Q (GE healthcare, Diegem, Belgium). Human recombinant PREP was expressed in BL21(DE3) cells and purified using immobilized Co-chelating chromatography (GE healthcare) followed by anion-exchange chromatography on a 1 ml Mono Q column (GE healthcare).
Eight concentrations of inhibitors were tested. The final DMSO concentration was kept constant during the experiment to exclude any solvent effects. Inhibitors were pre-incubated with the enzyme for 15 min at 37 °C, afterwards the substrate was added and the velocities of AMC release were measured kinetically at λex = 380 nm, λem = 465 nm for at least 10 min at 37 °C. The Infinite 200 (Tecan Group Ltd.) micro-titer plate reader and the Magellan software were used for measurement and data processing respectively.
(§2) The data were fitted using a non-linear fit model in GraFit 7 software, according to the following equation: y=range/1+x/IC50^s where y is the value of the residual enzymatic activity compared to a non-inhibited sample, x is the final inhibitor concentration in the assay, s is the slope factor and the IC50 is the half maximal inhibitory concentration.

In data set [2] the target is T2, Human recombinant PREP (Homo sapiens, UniProt P48147).
T2 sequence (P48147 1-710): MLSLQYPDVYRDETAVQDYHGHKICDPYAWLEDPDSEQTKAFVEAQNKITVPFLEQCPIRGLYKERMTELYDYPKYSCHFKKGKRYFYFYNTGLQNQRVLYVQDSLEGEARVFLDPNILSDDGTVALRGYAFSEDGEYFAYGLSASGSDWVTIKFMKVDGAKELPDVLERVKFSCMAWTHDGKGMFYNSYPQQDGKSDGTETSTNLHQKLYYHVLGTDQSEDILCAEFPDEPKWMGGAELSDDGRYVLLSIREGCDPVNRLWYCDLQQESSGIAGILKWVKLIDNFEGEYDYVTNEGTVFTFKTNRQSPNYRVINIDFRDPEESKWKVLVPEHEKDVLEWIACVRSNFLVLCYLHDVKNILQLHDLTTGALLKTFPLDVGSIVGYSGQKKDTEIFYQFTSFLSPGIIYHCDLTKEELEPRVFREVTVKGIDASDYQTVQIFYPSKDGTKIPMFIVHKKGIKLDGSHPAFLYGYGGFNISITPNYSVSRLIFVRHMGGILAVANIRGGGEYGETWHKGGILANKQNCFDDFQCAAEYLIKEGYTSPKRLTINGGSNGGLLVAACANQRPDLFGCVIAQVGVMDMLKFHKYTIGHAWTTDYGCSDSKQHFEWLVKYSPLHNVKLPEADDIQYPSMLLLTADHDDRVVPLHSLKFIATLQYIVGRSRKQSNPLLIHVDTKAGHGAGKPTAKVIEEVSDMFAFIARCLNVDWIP
Kind of data set: PREP inhibition assay (IC50, N-succinyl-Gly-Pro-AMC substrate). The format is biochemical. Conditions: N-succinyl-Gly-Pro-AMC 250 μM, pH 7.4, 15 min pre-incubation at 37 °C.
Text: as §1
Eight concentrations of inhibitors were tested. The final DMSO concentration is kept constant during the experiment to exclude any effects. Inhibitors were pre-incubated with the enzyme for 15 min at 37 °C, afterwards the substrate was added and the velocities of AMC release were measured kinetically at λex = 380 nm, λem = 465 nm for at least 10 min at 37 °C. The Infinite 200 (Tecan Group Ltd.) micro-titer plate reader and the Magellan software were used for measurement and data processing, respectively.
as §2

Data set [3] in a line: Stability studies of gallium-68 complexes in media (EtOH, human serum, saline, PBS). The format is physicochemical. The method, then:
(§3) Gallium-68 stability studies against transmetallation (Fe, Cu, Ca, Mg), transchelation (EDTA, DTPA) as well as in HS, EtOH and saline (0.9% isotone NaCl-solution) were performed. 50 μl of the [^68Ga]Ga-DOTA.SA.FAPi labeling solution with > 95% radiochemical purity were added to 1 mL of the respective media. The measured time points for gallium-68 were 15, 30, 45, 60, 90, 120 min. HS (human male AB plasma, USA origin) was bought from Sigma Aldrich, PBS was purchased from Sigma Aldrich and 0.9% saline from B. Braun Melsungen AG (Melsungen, Germany).

The nature of data set [4]: Gallium-68 stability against transmetallation (Fe, Cu, Ca, Mg) and transchelation (EDTA, DTPA). In kind it is physicochemical. The method, then: as §3
Data set [5] has as its system HT-29 xenograft mice. Briefly: Micro-PET/CT imaging in HT-29 tumor-bearing mice. The note with it: PET 60 min p.i. The format is in vivo, mouse. The method, then:
(§4) In vivo tumor model: HT-29 (human colon adenocarcinoma, ATCC, Rockville, Maryland) cells were routinely cultured in Dulbecco’s Modified Eagle Medium supplemented with 10% heat inactivated foetal bovine serum (FBS), 2 mM glutamine, 1% sodium pyruvate and 1% penicillin/streptomycin (Gibco, Life technologies). After detaching the cells, the number of viable cells was counted with the automated Muse™ Cell Analyzer (Merck Millipore). For the HT-29 subcutaneous model, 10.10^6 viable cells, suspended in 100 μl PBS, were inoculated in the right hind leg of female 6-week-old CD1^−/− Foxn1nu mice (n = 3), obtained from Charles River Laboratories (L’Arbresle, France). The animals were kept under environmentally controlled conditions (12 h light/dark cycle, 20–24 °C and 40–70% relative humidity) with food and water ad libitum. When tumors reached an approximate volume of 400 mm^3, 3 mice underwent μPET imaging. All experimental procedures and protocols were performed in accordance with European Directive 86/609/EEC Welfare and Treatment of Animals and were approved by the local ethical commission (2017–070, University of Antwerp, Belgium).
Micro-PET imaging: Micro-PET scans were carried out using an Inveon small-animal PET/CT scanner (Siemens), after i.v. injection of 4 nmol of [^68Ga]-DOTA.SA.FAPi (8.6 MBq, molar activity of 2.1 GBq/ μmol) into tumor bearing mice (n = 3), under isoflurane anesthesia (5% for induction, 2% for maintenance). Static whole-body PET images were acquired 60 min after injection of the radiotracer. Following each PET acquisition, a whole-body CT scan was acquired to obtain the animal’s anatomical information individually.
For quantitative analysis, PET data were reconstructed using 3-dimensional ordered subset expectation maximization (OSEM3D, 16 subsets and 2 iterations) and 18 maximum a posteriori (MAP) iterations including scatter and attenuation correction (matrix size, 128 × 128 × 159; voxel size, 0.776 × 0.776 × 0.776 mm;). Volumes of interest (VOIs) were manually drawn on the PET/CT images using PMOD (version 3.6; PMOD Technologies) to delineate the tumor, heart and muscle.

Data set [6] concerns HT-29 xenograft mice. Kind of data set: Ex vivo biodistribution in HT-29 xenograft mice. On the set-up: species or system mouse. The method, then:
as §4
Ex vivo biodistribution: Immediately after the CT scans, the animals were sacrificed, the blood, tissues and organs were collected, weighed and the radioactivity was measured using an automatic γ-counter (Wizard^2 2480, PerkinElmer). Values were expressed as percentage of the injected dose per gram (%ID/g).

Setting [7] is: HT-29 xenograft mice, 1 h p.i., N=3.
The mark [8] stands for this setting: ex vivo biodistribution, 1 h p.i.

Take `CN(CC(=O)[O-])C1(CCCCC(=O)NCCNc2c(NCCCCOc3ccc4nccc(C(=O)NCC(=O)N5CC(F)(F)C[C@H]5C#N)c4c3)c(=O)c2=O)CN(CC(=O)[O-])CCN(CC(=O)[O-])C1.[Ga+3]` [[^natGa]Ga-DATA^5m.SA.FAPi]: the IC50 worked out at 0.0007 ± 0.0001 µM in data set [1] and 4.7 ± 0.3 µM in data set [2]. In addition, the “Selectivity index (IC50 PREP / IC50 FAP)” value in data set [1] (ratio of the IC50 values for FAP and PREP) came to 6714.

`N#C[C@@H]1CC(F)(F)CN1C(=O)CNC(=O)c1ccnc2ccc(OCCCCNc3c(NCCNC(=O)CN4CCN(CC(=O)[O-])CCN(CC(=O)[O-])CCN(CC(=O)[O-])CC4)c(=O)c3=O)cc12.[Ga+3]` [[^natGa]Ga-DOTA.SA.FAPi]: the IC50 was determined as 0.0014 ± 0.0002 µM in data set [1] and 8.7 ± 0.9 µM in data set [2].

For the compound `CN(CC(=O)[O-])C1(CCCCC(=O)NCCNc2c(NCCCCOc3ccc4nccc(C(=O)NCC(=O)N5CC(F)(F)C[C@H]5C#N)c4c3)c(=O)c2=O)CN(CC(=O)[O-])CCN(CC(=O)[O-])C1.[68Ga+3]` [[^68Ga]Ga-DATA^5m.SA.FAPi], the “Stability, intact conjugate” value in data set [3] (human serum (HS), over 2 h) is over 95%; in data set [3] (phosphate buffered saline (PBS), over 120 min), over 95%; in data set [3] (saline 0.9% (NaCl), over 2 h), over 95%.

As to `N#C[C@@H]1CC(F)(F)CN1C(=O)CNC(=O)c1ccnc2ccc(OCCCCNc3c(NCCNC(=O)CN4CCN(CC(=O)[O-])CCN(CC(=O)[O-])CCN(CC(=O)[O-])CC4)c(=O)c3=O)cc12.[68Ga+3]` [[^68Ga]Ga-DOTA.SA.FAPi], the Stability against transmetallation in data set [4] (against Ca, after 2 h) is over 95%. In addition, the Stability against transmetallation in data set [4] (against Cu, after 2 h) is reported as over 95%. For the same compound, in data set [4] (against DTPA, after 2 h), the Stability against transchelation result is “over 98%”. For the same compound, the Stability against transchelation entry in data set [4] (against EDTA, after 2 h) is given as “over 98%”. In data set [4] (against Fe, after 90 min), this compound had a Stability against transmetallation of over 95%. Also, in data set [4] (against Fe, after 2 h), the Stability against transmetallation result was “over 92%”. The same compound displayed a Stability against transmetallation in data set [4] (against Mg, after 2 h) of over 95%. For the same compound, in data set [5], the SUVmean heart was 0.15 ± 0.01 and 0.15; the SUVmean kidneys was 0.27 ± 0.11 and 0.27; the SUVmean liver was 0.22 ± 0.08 and 0.22; the SUVmean muscle was 0.18 ± 0.07 and 0.18. In data set [5], the SUVmean small intestine is 0.37 ± 0.14; the SUVmean tumor was 0.75 ± 0.09 and 0.75. In addition, the “Stability, intact conjugate” value in data set [3] (ethanol (EtOH), over 2 h at 37 °C) is given as “over 98%”. In data set [3] (human serum (HS), over 2 h), the “Stability, intact conjugate” value is given as “over 98%”. Also, the “Stability, intact conjugate” value in data set [3] (saline 0.9% (NaCl), over 2 h) is reported as “over 98%”. The “Ex vivo biodistribution, Tumor” value in data set [6] (HT-29 xenograft mice, 1 h (60 min) p.i., N=3) is 5.2 %ID/g. Besides, in data set [6] (setting [7]), the “Ex vivo biodistribution, Bladder” value is recorded as 0.96 %ID/g; the “Ex vivo biodistribution, Blood” value is listed as 0.56 %ID/g; the “Ex vivo biodistribution, Bone” value amounted to 3.56 %ID/g; the “Ex vivo biodistribution, Brain” value worked out at 1.27 %ID/g. In addition, in data set [6] (setting [7]), the “Ex vivo biodistribution, Fat” value worked out at 0.38 %ID/g; the “Ex vivo biodistribution, Heart” value is given as 0.22 %ID/g; the “Ex vivo biodistribution, Kidneys” value is recorded as 1.77 %ID/g; the “Ex vivo biodistribution, Large Intestine” value worked out at 0.21 %ID/g. In addition, in data set [6] (setting [7]), the “Ex vivo biodistribution, Liver” value turned out to be 0.70 %ID/g; the “Ex vivo biodistribution, Lungs” value is 0.33 %ID/g; the “Ex vivo biodistribution, Muscle” value is on record as 0.45 %ID/g; the “Ex vivo biodistribution, Pancreas” value came out at 0.51 %ID/g. In data set [6] (setting [7]), the “Ex vivo biodistribution, Skin” value was found to be 0.04 %ID/g; the “Ex vivo biodistribution, Small Intestine” value was 1.81 %ID/g; the “Ex vivo biodistribution, Spleen” value is given as 0.23 %ID/g; the “Ex vivo biodistribution, Stomach” value came to 0.21 %ID/g. Also, in data set [6] (setting [8]), the tumor-to-blood ratio was determined as 9.2 ± 1.1, the tumor-to-bone ratio is on record as 1.5 ± 0.2, the tumor-to-large intestine ratio worked out at 24.9 ± 1.7 and the tumor-to-muscle ratio is listed as 11.5 ± 2.2. Moreover, in data set [6] (setting [8]), the tumor-to-small intestine ratio stood at 2.9 ± 0.8.
